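Exposure lasted 48 hours, with cells grown in 96-well plates and compounds tested at five concentrations. GI50: concentration for 50% inhibition of growth.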 Activity calls are given as the source filed them. Cut-off read from the data, not from the text of the source: active = GI50 up to about 1.1 µM and inactive = higher.
Assays:
Assay in all cases: DTP human tumour cell line panel, 48 h
[1] = tested on: HL-60
[2] = tested on: HCT-116
[3] = tested on: SK-OV-3
[4] = tested on: NCI/ADR-RES
[5] = tested on: KM12
[6] = tested on: ACHN
[7] = tested on: HCT-15
[8] = tested on: Malme-3M
[9] = tested on: SW-620
[10] = tested on: SK-MEL-28
[11] = tested on: TK-10
[12] = tested on: UO-31
[13] = tested on: CCRF-CEM
[14] = tested on: A498
[15] = tested on: T47D
[16] = tested on: PC-3
[17] = tested on: MCF7
[18] = tested on: M14
[19] = tested on: SN12C

`CC(=O)N1N=C(N)CC1=O` was tested, and the GI50 [1] was > 100 µM (inactive), the GI50 [2] was > 100 µM (inactive) and the GI50 [3] was > 100 µM (inactive). The GI50 [4] was > 100 µM (inactive), the GI50 [5] was > 100 µM (inactive) and the GI50 [6] was > 100 µM (inactive). The GI50 [7] was greater than 100 µM, the GI50 [8] was > 100 µM (inactive) and the GI50 [9] was > 100 µM (inactive). For the same compound, the GI50 [10] was > 100 µM (inactive), the GI50 [11] was > 100 µM (inactive) and the GI50 [12] was > 100 µM (inactive). The GI50 [13] was > 100 µM (inactive), the GI50 [14] was > 100 µM (inactive) and the GI50 [15] was > 100 µM (inactive). The GI50 [16] was > 100 µM (inactive), the GI50 [17] was > 100 µM (inactive) and the GI50 [18] was > 100 µM (inactive). The GI50 [19] was > 100 µM (inactive).

With `CC1(Cc2cc3c(cc2C2(c4ccc([N+](=O)[O-])cc4)OCCO2)OCO3)OCCO1` the GI50 [1] was > 100 µM (inactive), the GI50 [2] was > 100 µM (inactive) and the GI50 [3] was > 100 µM (inactive). The GI50 [4] was 87.9 µM (inactive), the GI50 [5] was 72.3 µM (inactive) and the GI50 [6] was 93.3 µM (inactive). For the same compound, the GI50 [7] was 51.1 µM, the GI50 [8] was > 100 µM (inactive) and the GI50 [9] was > 100 µM (inactive). For the same compound, the GI50 [10] was > 100 µM (inactive), the GI50 [11] was > 100 µM (inactive) and the GI50 [12] was 34.3 µM (inactive). The GI50 [13] was 49.3 µM (inactive), the GI50 [14] was > 100 µM (inactive) and the GI50 [15] was > 100 µM (inactive). The GI50 [16] was 47.2 µM (inactive), the GI50 [17] was 51.8 µM (inactive) and the GI50 [18] was > 100 µM (inactive). For the same compound, the GI50 [19] was > 100 µM (inactive).

In the case of `CCOC(=O)[C@H](O)[C@@H](O)C(=O)NCc1ccc(C(=O)c2ccccc2)cc1`, the GI50 [1] is reported as > 100 µM (inactive), the GI50 [2] is reported as > 100 µM (inactive) and the GI50 [3] is reported as > 100 µM (inactive). For the same compound, the GI50 [4] was > 100 µM (inactive), the GI50 [5] was > 100 µM (inactive) and the GI50 [6] was > 100 µM (inactive). The GI50 [7] was greater than 100 µM, the GI50 [8] was > 100 µM (inactive) and the GI50 [9] was > 100 µM (inactive). For the same compound, the GI50 [10] was > 100 µM (inactive), the GI50 [11] was > 100 µM (inactive) and the GI50 [12] was > 100 µM (inactive). The GI50 [13] was > 100 µM (inactive), the GI50 [14] was > 100 µM (inactive) and the GI50 [15] was > 100 µM (inactive). The GI50 [16] was > 100 µM (inactive), the GI50 [17] was > 100 µM (inactive) and the GI50 [18] was > 100 µM (inactive). For the same compound, the GI50 [19] was > 100 µM (inactive).

`O=C1NC(N2CCOCC2)=N/C1=C\c1ccccc1O` was tested, and the GI50 [1] was 58.1 µM (inactive), the GI50 [2] was > 100 µM (inactive) and the GI50 [3] was > 100 µM (inactive). The GI50 [4] was > 100 µM (inactive), the GI50 [5] was > 100 µM (inactive) and the GI50 [6] was > 100 µM (inactive). For the same compound, the GI50 [7] was greater than 100 µM, the GI50 [8] was > 100 µM (inactive) and the GI50 [9] was > 100 µM (inactive). The GI50 [10] was > 100 µM (inactive), the GI50 [11] was > 100 µM (inactive) and the GI50 [12] was > 100 µM (inactive). The GI50 [13] was > 100 µM (inactive), the GI50 [14] was > 100 µM (inactive) and the GI50 [15] was > 100 µM (inactive). The GI50 [16] was > 100 µM (inactive), the GI50 [17] was > 100 µM (inactive) and the GI50 [18] was > 100 µM (inactive). The GI50 [19] was > 100 µM (inactive).

With `O=C1CC(=O)c2c(N3CCCC3)sc(N3CCCC3)c21` the GI50 [1] was > 100 µM (inactive), the GI50 [2] was > 100 µM (inactive) and the GI50 [3] was > 100 µM (inactive). The GI50 [4] was > 100 µM (inactive), the GI50 [5] was > 100 µM (inactive) and the GI50 [6] was > 100 µM (inactive). The GI50 [7] was greater than 100 µM, the GI50 [8] was > 100 µM (inactive) and the GI50 [9] was > 100 µM (inactive). For the same compound, the GI50 [10] was > 100 µM (inactive), the GI50 [11] was > 100 µM (inactive) and the GI50 [12] was > 100 µM (inactive). For the same compound, the GI50 [13] was 41.2 µM (inactive), the GI50 [14] was > 100 µM (inactive) and the GI50 [15] was > 100 µM (inactive). The GI50 [16] was > 100 µM (inactive), the GI50 [17] was > 100 µM (inactive) and the GI50 [18] was > 100 µM (inactive). For the same compound, the GI50 [19] was > 100 µM (inactive).

With `CCNCCCNc1c2ccccc2nc2ccccc12` the GI50 [1] was 0.493 µM (active), the GI50 [2] was 0.365 µM (active) and the GI50 [3] was 1.33 µM (inactive). The GI50 [4] was 0.916 µM (active), the GI50 [5] was 0.396 µM (active) and the GI50 [6] was 0.136 µM (active). For the same compound, the GI50 [7] was 0.366 µM, the GI50 [8] was 0.406 µM (active) and the GI50 [9] was 0.278 µM (active). For the same compound, the GI50 [10] was 0.401 µM (active), the GI50 [11] was 0.571 µM (active) and the GI50 [12] was 0.334 µM (active). For the same compound, the GI50 [13] was 0.514 µM (active), the GI50 [14] was 0.631 µM (active) and the GI50 [15] was 0.502 µM (active). For the same compound, the GI50 [16] was 0.245 µM (active), the GI50 [17] was 0.193 µM (active) and the GI50 [18] was 0.318 µM (active). For the same compound, the GI50 [19] was 0.429 µM (active).

`NNC(=O)CSc1nnc(CCCCCCCCc2nnc(SCC(=O)NN)o2)o1` was tested, and the GI50 [1] was > 100 µM (inactive), the GI50 [2] was > 100 µM (inactive) and the GI50 [3] was > 100 µM (inactive). The GI50 [4] was > 100 µM (inactive), the GI50 [5] was > 100 µM (inactive) and the GI50 [6] was > 100 µM (inactive). For the same compound, the GI50 [7] was greater than 100 µM, the GI50 [8] was > 100 µM (inactive) and the GI50 [9] was > 100 µM (inactive). For the same compound, the GI50 [10] was > 100 µM (inactive), the GI50 [11] was > 100 µM (inactive) and the GI50 [12] was > 100 µM (inactive). For the same compound, the GI50 [13] was > 100 µM (inactive), the GI50 [14] was > 100 µM (inactive) and the GI50 [15] was > 100 µM (inactive). For the same compound, the GI50 [16] was > 100 µM (inactive), the GI50 [17] was > 100 µM (inactive) and the GI50 [18] was > 100 µM (inactive). For the same compound, the GI50 [19] was > 100 µM (inactive).

For `O=C1NC(c2c(Cl)cccc2Cl)Nc2ccccc21` (centres undefined), the GI50 [1] was 18 µM (inactive), the GI50 [2] was 25.4 µM (inactive) and the GI50 [3] was > 100 µM (inactive). The GI50 [4] was 21.8 µM (inactive), the GI50 [5] was 16.4 µM (inactive) and the GI50 [6] was > 100 µM (inactive). The GI50 [7] was 49.7 µM, the GI50 [8] was 24.8 µM (inactive) and the GI50 [9] was 30.5 µM (inactive). For the same compound, the GI50 [10] was 73.3 µM (inactive), the GI50 [11] was > 100 µM (inactive) and the GI50 [12] was > 100 µM (inactive). The GI50 [13] was > 10 µM (inactive), the GI50 [14] was 85.7 µM (inactive) and the GI50 [15] was > 100 µM (inactive). The GI50 [16] was 71.1 µM (inactive), the GI50 [17] was 47.3 µM (inactive) and the GI50 [18] was 34.8 µM (inactive). The GI50 [19] was 65.6 µM (inactive).

`O=C1C=Cc2cscc21` was tested, and the GI50 [1] was 29 µM (inactive), the GI50 [2] was 15.3 µM (inactive) and the GI50 [3] was > 100 µM (inactive). For the same compound, the GI50 [4] was 28.8 µM (inactive), the GI50 [5] was 71.4 µM (inactive) and the GI50 [6] was 34.5 µM (inactive). For the same compound, the GI50 [7] was 22.7 µM, the GI50 [8] was 27 µM (inactive) and the GI50 [9] was 33.3 µM (inactive). The GI50 [10] was 69.8 µM (inactive), the GI50 [11] was 42.5 µM (inactive) and the GI50 [12] was 26.2 µM (inactive). For the same compound, the GI50 [13] was 22.6 µM (inactive), the GI50 [14] was > 100 µM (inactive) and the GI50 [15] was 27.5 µM (inactive). For the same compound, the GI50 [16] was 42 µM (inactive), the GI50 [17] was 15.3 µM (inactive) and the GI50 [18] was 26.4 µM (inactive). For the same compound, the GI50 [19] was 28.1 µM (inactive).

In the case of `Nc1nc(Cl)c(N)c(NCC2(CO)CCC(CCc3ccccc3)C2)n1` (centres undefined), the GI50 [1] is reported as 3.37 µM (inactive), the GI50 [2] is reported as 12.2 µM (inactive) and the GI50 [3] is reported as 22.3 µM (inactive). For the same compound, the GI50 [4] was > 39.5 µM (inactive), the GI50 [5] was 13.4 µM (inactive) and the GI50 [6] was 18.7 µM (inactive). For the same compound, the GI50 [7] was 16.1 µM, the GI50 [8] was 1.83 µM (inactive) and the GI50 [9] was 2.08 µM (inactive). The GI50 [10] was 14.6 µM (inactive), the GI50 [11] was 21.3 µM (inactive) and the GI50 [12] was 18.4 µM (inactive). The GI50 [13] was 6.21 µM (inactive), the GI50 [14] was 14.6 µM (inactive) and the GI50 [15] was 1.56 µM (inactive). The GI50 [16] was 17.3 µM (inactive), the GI50 [17] was 7.59 µM (inactive) and the GI50 [18] was 13.1 µM (inactive). The GI50 [19] was 22.8 µM (inactive).

For `O=C1c2cc3c(cc2CC12Cc1cc4c(cc1C2=O)CCC4)CCC3`, the GI50 [1] was > 100 µM (inactive), the GI50 [2] was > 100 µM (inactive) and the GI50 [3] was > 100 µM (inactive). For the same compound, the GI50 [4] was > 100 µM (inactive), the GI50 [5] was > 100 µM (inactive) and the GI50 [6] was > 100 µM (inactive). The GI50 [7] was greater than 100 µM, the GI50 [8] was > 100 µM (inactive) and the GI50 [9] was > 100 µM (inactive). For the same compound, the GI50 [10] was > 100 µM (inactive), the GI50 [11] was > 100 µM (inactive) and the GI50 [12] was > 100 µM (inactive). For the same compound, the GI50 [13] was > 100 µM (inactive), the GI50 [14] was > 100 µM (inactive) and the GI50 [15] was > 100 µM (inactive). The GI50 [16] was > 100 µM (inactive), the GI50 [17] was > 100 µM (inactive) and the GI50 [18] was 14.4 µM (inactive). The GI50 [19] was > 100 µM (inactive).
